“And” between values parts separate entries of the source, which are not always exact repeats. Equal entries are not always repeated.
Tests used:
[1] = biological target: T1, TRPM8 (Rattus norvegicus, UniProt Q8R455); test: Ca2+ microfluorography (Fluo-4 NW), menthol-induced Ca2+ signal in HEK-CR1-TRPM8 cells; assay type: cell-based; conditions: for % Block TRPM8 50 µM: 50 µM compound; for % Block TRPM8 50 µM / IC50: agonist 100 µM menthol, HEK-CR1-TRPM8 cells
T1 construct: expressed in transfected cells
T1 sequence (Q8R455 whole entry): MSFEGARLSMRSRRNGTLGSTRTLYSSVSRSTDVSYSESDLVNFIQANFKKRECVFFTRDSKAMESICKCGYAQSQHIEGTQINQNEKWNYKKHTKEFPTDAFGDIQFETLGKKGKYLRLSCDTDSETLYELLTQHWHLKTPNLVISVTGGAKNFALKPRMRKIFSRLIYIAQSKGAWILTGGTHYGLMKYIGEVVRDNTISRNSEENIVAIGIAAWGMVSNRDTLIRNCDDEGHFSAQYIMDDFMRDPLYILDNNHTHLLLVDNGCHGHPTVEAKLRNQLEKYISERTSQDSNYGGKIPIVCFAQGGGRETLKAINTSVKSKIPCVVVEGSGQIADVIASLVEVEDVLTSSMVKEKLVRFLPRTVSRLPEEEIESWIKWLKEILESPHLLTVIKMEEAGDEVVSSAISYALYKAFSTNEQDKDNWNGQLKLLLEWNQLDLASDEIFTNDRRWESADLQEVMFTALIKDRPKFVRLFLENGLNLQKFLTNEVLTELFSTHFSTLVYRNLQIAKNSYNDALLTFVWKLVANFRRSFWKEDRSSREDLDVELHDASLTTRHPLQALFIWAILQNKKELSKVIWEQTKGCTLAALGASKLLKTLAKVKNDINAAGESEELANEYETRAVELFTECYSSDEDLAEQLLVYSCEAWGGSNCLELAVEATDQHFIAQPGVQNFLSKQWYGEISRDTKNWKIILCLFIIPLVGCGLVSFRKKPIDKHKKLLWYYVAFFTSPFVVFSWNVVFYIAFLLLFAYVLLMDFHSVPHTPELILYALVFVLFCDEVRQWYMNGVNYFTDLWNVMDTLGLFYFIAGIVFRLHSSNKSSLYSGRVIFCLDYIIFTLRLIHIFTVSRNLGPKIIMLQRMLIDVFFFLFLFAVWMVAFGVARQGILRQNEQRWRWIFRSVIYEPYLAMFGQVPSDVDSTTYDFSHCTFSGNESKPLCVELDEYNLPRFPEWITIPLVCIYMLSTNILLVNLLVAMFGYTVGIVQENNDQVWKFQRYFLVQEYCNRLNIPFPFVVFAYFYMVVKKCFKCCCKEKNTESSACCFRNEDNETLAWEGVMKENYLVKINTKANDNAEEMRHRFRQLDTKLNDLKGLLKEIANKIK
Protocol: (§1) All compounds were tested at two different concentrations (50 and 5 µM) on TRPM8 and TRPV1 channels stably expressed in HEK and SH-SY5Y cell lines, respectively. The agonist induced intracellular Ca^2+ signals were measured using a fluorescent Ca^2+ indicator, in the absence and in the presence of test compounds. […] The obtained results were compared to those of 68 (AMTB, TRPM8 antagonist) and ruthenium red (TRPV1 antagonist). The IC50 values for the assay on TRPM8 were also calculated.
(§2) For fluorescence assays, cells expressing TRP channels (SH-SY5Y-TRPV1 and HEKCR1-TRPM8) were seeded in 96-well plates (Corning Incorporated, Corning, NY) at a cell density of 40,000 cells 2 days before treatment. The day of treatment the medium was replaced with 100 µL of the dye loading solution Fluo-4 NW supplemented with probenecid 2.5 mM. Then the compounds dissolved in DMSO were added at the desired concentrations and the plate(s) were incubated at 37 °C in a humidified atmosphere of 5% CO2 for 60 minutes.
(§3) The fluorescence was measured using instrument settings appropriate for excitation at 485 nm and emission at 535 nm (POLARstar Omega BMG LABtech). […] The corresponding antagonist
(§4) (10 µM Ruthenium Red forTRPV1 and 10 µM 68 for TRPM8) was added for the blockade. The changes in fluorescence intensity were recorded during 15 cycles more. […] The blocking percentage was calculated as follow (Eq. 1):1 %TRPBlockedResponse=(1−Fo−Fi/FCo−FCi)∗100 where Fo is the fluorescence after the addition of menthol in the presence of the compound, Fi is the fluorescence before the addition of menthol in the presence of the compound, FCo is the fluorescence after the addition of menthol in the absence of the compound, FCi is the fluorescence before the addition of menthol in the absence of the compound. To guarantee that our results were useful we only used assays with a Z-factor higher than 0.5.
(§5) The statistical Z-factor to determine the quality of the HTS experiment as was calculated using the equation 2:2 Z‐factor=1−3∗(SDmax+SDmin)/Meanmax−Meanmin where: Meanmax is the mean of the maximum fluorescence in the presence of agonist, SDmax is the standard deviation of the maximum fluorescence in the presence of agonists, Meanmin is the mean of the maximum fluorescence in the presence of agonist and antagonist and SDmin is the standard deviation of the maximum fluorescence in the presence of agonist and antagonist.

[2] = biological target: TRPV1 (Rattus norvegicus, UniProt O35433); test: Ca2+ microfluorography (Fluo-4 NW), capsaicin-induced Ca2+ signal in SH-SY5Y-TRPV1 cells; assay type: cell-based; conditions: for % Block TRPV1 50 µM: 50 µM compound, agonist 10 µM capsaicin, SH-SY5Y-TRPV1 cells
Sequence of TRPV1 (O35433 whole entry): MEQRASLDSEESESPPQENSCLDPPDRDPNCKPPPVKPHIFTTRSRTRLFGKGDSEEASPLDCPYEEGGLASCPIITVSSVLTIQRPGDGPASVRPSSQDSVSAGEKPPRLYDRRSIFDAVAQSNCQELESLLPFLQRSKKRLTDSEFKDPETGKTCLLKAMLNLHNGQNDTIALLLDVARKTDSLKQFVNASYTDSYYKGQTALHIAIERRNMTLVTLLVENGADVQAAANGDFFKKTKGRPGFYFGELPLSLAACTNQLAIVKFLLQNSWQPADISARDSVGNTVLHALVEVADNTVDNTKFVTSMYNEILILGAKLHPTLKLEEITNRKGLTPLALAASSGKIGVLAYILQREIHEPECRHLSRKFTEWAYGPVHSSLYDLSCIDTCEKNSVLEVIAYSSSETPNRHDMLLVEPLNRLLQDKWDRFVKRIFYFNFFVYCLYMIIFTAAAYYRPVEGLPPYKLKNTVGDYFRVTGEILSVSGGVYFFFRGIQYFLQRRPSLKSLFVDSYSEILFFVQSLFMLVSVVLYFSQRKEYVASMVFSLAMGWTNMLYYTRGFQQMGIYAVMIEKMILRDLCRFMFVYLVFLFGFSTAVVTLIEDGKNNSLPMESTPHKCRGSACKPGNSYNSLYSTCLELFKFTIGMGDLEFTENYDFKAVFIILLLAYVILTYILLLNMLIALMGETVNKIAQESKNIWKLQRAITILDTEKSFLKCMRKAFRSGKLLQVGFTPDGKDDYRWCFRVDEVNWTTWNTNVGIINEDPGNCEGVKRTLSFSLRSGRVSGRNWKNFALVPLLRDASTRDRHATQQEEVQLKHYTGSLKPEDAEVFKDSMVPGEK
Protocol: as §1, §2, §3, §4, §5

[3] = Kinetic solubility; assay type: physicochemical

COC(=O)C(CCN1C(=O)CC1(Cc1ccccc1)C(=O)OC)NC(=O)OC(C)(C)C (stereo not drawn) [Compound 39]
% Block TRPM8 50 µM [1]: 49.2 ± 15.3%
IC50 [1]: 50.2 ± 1.3 µM

COC(=O)C1(Cc2ccccc2)CC(=O)N1CCC(NC(=O)OC(C)(C)C)C(=O)OCc1ccccc1 (stereo not drawn) [Compound 40]
% Block TRPM8 50 µM [1]: 75%
IC50 [1]: 6.8 ± 1.02 µM
% Block TRPV1 50 µM [2]: 42.4 ± 5.3%

COC(=O)C1(Cc2ccccc2)CC(=O)N1CCC(NC(=O)OCc1ccccc1)C(=O)OC(C)(C)C (stereo not drawn) [Compound 42]
% Block TRPM8 50 µM [1]: 82% and 82.2 ± 29.0%
IC50 [1]: 6.2 ± 1.6 µM
% Block TRPV1 50 µM [2]: 51.7 ± 15.4%

COC(=O)C1(C)CC(=O)N1CC[C@H](NC(=O)OC(C)(C)C)C(=O)OCc1ccccc1 (stereo partly drawn) [Compound 43]
% Block TRPM8 50 µM [1]: 80.5 ± 15.8%
IC50 [1]: 36.8 ± 3.1 µM

COC(=O)C1(C)CC(=O)N1CCC(NC(=O)OCc1ccccc1)C(=O)OC(C)(C)C (stereo not drawn) [Compound 44]
% Block TRPM8 50 µM [1]: 21.3 ± 9.8%
IC50 [1]: 339.8 ± 1.4 µM
% Block TRPV1 50 µM [2]: 26.8 ± 4.8%

CC(C)(C)OC(=O)NC(CCCN1C(=O)CC1(Cc1ccccc1)C(=O)OCc1ccccc1)C(=O)OCc1ccccc1 (stereo not drawn) [Compound 46]
% Block TRPM8 50 µM [1]: 86.5±19.6%
IC50 [1]: 1.7 ± 2.7 µM
reduction of TRPM8 blockade activity compared with homologue 41 ([1]; longer N-alkyl chain, 46 versus 41): up to 4 fold
% Block TRPV1 50 µM [2]: 59.4 ± 10.5%

COC(=O)C(CCCN1C(=O)CC1(Cc1ccccc1)C(=O)OC(C)(C)C)NC(=O)OCc1ccccc1 (stereo not drawn) [Compound 47]
% Block TRPM8 50 µM [1]: 94.9 ± 19.7%
% Block TRPV1 50 µM [2]: 49.8 ± 7.2%

CC(C)(C)OC(=O)NC(CCN1C(=O)CC1(Cc1ccccc1)C(=O)O)C(=O)O (stereo not drawn) [Compound 51]
% Block TRPM8 50 µM [1]: 41.7 ± 8.7%
IC50 [1]: 74.1 ± 3.6 µM
% Block TRPV1 50 µM [2]: 15.9 ± 4.3%

CC(C)(C)OC(=O)NC(CCCN1C(=O)CC1(Cc1ccccc1)C(=O)O)C(=O)O (stereo not drawn) [Compound 53]
% Block TRPM8 50 µM [1]: 40.9 ± 10.3%
IC50 [1]: 68.4 ± 8.5 µM
% Block TRPV1 50 µM [2]: 20.6 ± 9.2%

COC(=O)[C@H](C)NC(=O)[C@H](CCN1C(=O)C[C@@]1(Cc1ccccc1)C(=O)N[C@@H](C)C(=O)OC)NC(=O)OC(C)(C)C [Compound 57b]
% Block TRPM8 50 µM [1]: 44.0 ± 16.5%
IC50 [1]: 70.4 ± 1.6 µM

COC(=O)[C@H](C)NC(=O)C1(Cc2ccccc2)CC(=O)N1CCC[C@H](NC(=O)OCc1ccccc1)C(=O)OC (stereo partly drawn) [Compound 58]
% Block TRPM8 50 µM [1]: 50.7 ± 9.5%
IC50 [1]: 48.4 ± 18.6 µM
% Block TRPV1 50 µM [2]: 18.3 ± 16.2%

COC(=O)[C@H](CCCN1C(=O)CC1(Cc1ccccc1)C(=O)N[C@H](C)C(=O)OC)NC(=O)OCc1ccccc1 (stereo partly drawn) [Compound 59]
% Block TRPM8 50 µM [1]: 36.2 ± 22.3%
IC50 [1]: 81.2 ± 4.8 µM
% Block TRPV1 50 µM [2]: 19.4 ± 5.1%

COC(=O)C(C)NC(=O)C1(Cc2ccccc2)CC(=O)N1CCCC(C(=O)OC)N(C)C(=O)OCc1ccccc1 (stereo not drawn) [Compound 60]
% Block TRPM8 50 µM [1]: 71.3 ± 18.8%
IC50 [1]: 32.6 ± 1.8 µM

CNC(CCCN1C(=O)CC1(Cc1ccccc1)C(=O)NC(C)C(=O)OC)C(=O)OC (stereo not drawn) [Compound 61]
% Block TRPM8 50 µM [1]: 78.3 ± 25.0%
IC50 [1]: 27 ± 1.7 µM

CC(C)(C)OC(=O)N[C@@H](CCN1C(=O)C[C@]1(Cc1ccccc1)C(=O)NCc1ccccc1)C(=O)NCc1ccccc1 [Compound 62a]
% Block TRPM8 50 µM [1]: 70.0 ± 18.6%
IC50 [1]: 7.1 ± 0.3 µM
% Block TRPV1 50 µM [2]: 42.5 ± 16.2%
Kinetic solubility ([3]; 1% DMSO): 63 µM and 38 mg/L
Kinetic solubility ([3]; 5% DMSO): 92 µM and 55 mg/L

CC(C)(C)OC(=O)NC(CCCN1C(=O)CC1(Cc1ccccc1)C(=O)NCc1ccccc1)C(=O)NCc1ccccc1 (stereo not drawn) [Compound 64]
% Block TRPM8 50 µM [1]: 70.4 ± 15.2%
IC50 [1]: 11.5 ± 2.7 µM
% Block TRPV1 50 µM [2]: 26.9 ± 9.2%

CC(C)(C)OC(=O)NC(CCN1C(=O)CC1(Cc1ccccc1)C(=O)Nc1cccnc1)C(=O)Nc1cccnc1 (stereo not drawn) [Compound 66]
% Block TRPM8 50 µM [1]: 64.6 ± 13.2%
IC50 [1]: 5.7 ± 3.4 µM
% Block TRPV1 50 µM [2]: 22.8 ± 3.7%
Kinetic solubility ([3]; 1% DMSO): > 100 µM
Kinetic solubility ([3]; 5% DMSO): > 500 µM
improved solubility respect to 41 ([3]; ratio to compound 41): > 50 fold
improved solubility respect to 62 ([3]; ratio to compound 62): > 5 fold

CC(C)(C)OC(=O)N[C@@H](CCN1C(=O)C[C@]1(Cc1ccccc1)C(=O)Nc1ccncc1)C(=O)Nc1ccncc1 [Compound 67a]
% Block TRPM8 50 µM [1]: 43.5 ± 9.8%
IC50 [1]: 38.1 ± 6.3 µM
% Block TRPV1 50 µM [2]: 36.3 ± 10.8%

CC(C)(C)OC(=O)N[C@@H](CCN1C(=O)C[C@@]1(Cc1ccccc1)C(=O)Nc1ccncc1)C(=O)Nc1ccncc1 [Compound 67b]
% Block TRPM8 50 µM [1]: 52.3 ± 7.6%
IC50 [1]: 7.26 ± 1.9 µM
% Block TRPV1 50 µM [2]: 31.7 ± 4.5%

Cc1cccc(COc2ccccc2C(=O)N(CCCN)Cc2cccs2)c1 [Compound 68, reference compound]
% Block TRPM8 50 µM [1]: 100%
IC50 [1]: 7 ± 1 µM

N.N.N.N.N.N.N.N.N.N.N.N.N.N.[Cl-].[Cl-].[Cl-].[Cl-].[Cl-].[Cl-].[O-2].[O-2].[Ru+3].[Ru+3].[Ru+4] [Ruthenium red, reference compound]
% Block TRPV1 50 µM [2]: 100%
IC50 ([2]; printed in the TRPM8 IC50 column, footnote a: evaluated in TRPV1): 0.015 µM

CC1CCC(C(C)C)C(O)C1 (stereo not drawn) [menthol, reference compound]
EC50 ([1]; agonist, in our assay): 137 µM
